According to EP0908457B1, “3-(1,2-benzisothiazol- and isoxazol-5-Y1)-2,4(1H,3H)-pyrimidinedione or thione and 3-(1,2-benzisothiazol- and isoxazol-5-y1)-4(3H)-pyrimidinone or thione herbicidal agents” (BASF AKTIENGESELLSCHAFT, priority 1997, dated 1999):

Key:
[1] = test system: Echinochloa oryzoides (Ard.) Fritsch.; assay: Preemergence weed control under flooded paddy conditions, ECHORC (Watergrass (Calif.)); assay type: in vivo; conditions: preemergence, flooded paddy, rated three to four weeks after treatment; as to herbicidal effect rating, ECHORC: meaning of each grade not given here
Cyperus iria = assay: Preemergence weed control under flooded paddy conditions, CYPIR (Rice Flatsedge); assay type: in vivo; conditions: preemergence, flooded paddy, rated three to four weeks after treatment; as to herbicidal effect rating, CYPIR: meaning of each grade not given here
[2] = test system: Cyperus serotinus, Rottb.; assay: Preemergence weed control under flooded paddy conditions, CYPSE (Flatsedge); assay type: in vivo; conditions: preemergence, rated three to four weeks after treatment; as to herbicidal effect rating, CYPSE: meaning of each grade not given here
[3] = test system: Monochoria vaginalis, Presl.; assay: Preemergence weed control under flooded paddy conditions, MOOVA (Monochoria); assay type: in vivo; conditions: preemergence, flooded paddy, rated three to four weeks after treatment; as to herbicidal effect rating, MOOVA: meaning of each grade not given here
Sagittaria pygmaea, L. = assay: Preemergence weed control under flooded paddy conditions, SAGPY (Arrowhead (Pygmaea)); assay type: in vivo; conditions: preemergence, flooded paddy, rated three to four weeks after treatment; as to herbicidal effect rating, SAGPY: meaning of each grade not given here
[4] = test system: Oryza sativa, (L.) Tebonnet; assay: Rice tolerance to post-transplant applications under flooded paddy conditions (Example 187), ORYSAT (Rice, Tebonnet); conditions: rated three to four weeks after treatment

CC/C(C=O)=C\c1nsc2ccc(-n3c(=O)cc(C(F)(F)F)n(C)c3=O)cc12 [Example 567, 1,2-Benzisothiazole-3-acrylaldehyde, 5-[3,6-dihydro-3-methyl-2,6-dioxo-4-(trifluoromethyl)-1(2H)-pyrimidinyl]-alpha-ethyl-, (E)-]
2.0: herbicidal effect rating, ECHORC ([1]; Rate 0.1250 kg/ha) | herbicidal effect rating ORYSAT ([4]; Rate 0.2500 kg/ha)
1.0: herbicidal effect rating ORYSAT ([4]; Rate 0.1250 kg/ha)
9.0: herbicidal effect rating, CYPIR (Cyperus iria; Rate 0.0620 kg/ha) | herbicidal effect rating, CYPIR (Cyperus iria; Rate 0.2500 kg/ha) | herbicidal effect rating, MOOVA ([3]; Rate 0.1250 kg/ha) | herbicidal effect rating, MOOVA ([3]; Rate 0.2500 kg/ha)
0.0: herbicidal effect rating, ECHORC ([1]; Rate 0.0320 kg/ha) | herbicidal effect rating, ECHORC ([1]; Rate 0.0620 kg/ha) | herbicidal effect rating, CYPSE ([2]; Rate 0.0320 kg/ha) | herbicidal effect rating, CYPSE ([2]; Rate 0.0620 kg/ha) | herbicidal effect rating, CYPSE ([2]; Rate 0.1250 kg/ha) | herbicidal effect rating, CYPSE ([2]; Rate 0.2500 kg/ha) | herbicidal effect rating, MOOVA ([3]; Rate 0.0320 kg/ha) | herbicidal effect rating, SAGPY (Sagittaria pygmaea, L.; Rate 0.0320 kg/ha) | herbicidal effect rating, SAGPY (Sagittaria pygmaea, L.; Rate 0.0620 kg/ha) | herbicidal effect rating, SAGPY (Sagittaria pygmaea, L.; Rate 0.1250 kg/ha) | herbicidal effect rating, SAGPY (Sagittaria pygmaea, L.; Rate 0.2500 kg/ha) | herbicidal effect rating ORYSAT ([4]; Rate 0.0320 kg/ha) | herbicidal effect rating ORYSAT ([4]; Rate 0.0620 kg/ha)
4.0: herbicidal effect rating, ECHORC ([1]; Rate 0.2500 kg/ha) | herbicidal effect rating, CYPIR (Cyperus iria; Rate 0.0320 kg/ha) | herbicidal effect rating, CYPIR (Cyperus iria; Rate 0.1250 kg/ha)
3.0: herbicidal effect rating, MOOVA ([3]; Rate 0.0620 kg/ha)

Cn1c(C(F)(F)F)cc(=O)n(-c2ccc3snc(COCOCc4ccccc4)c3c2)c1=O [Example 461, 2,4(1H,3H)-Pyrimidinedione, 3-{3-{[(benzyloxy)-methoxy]methyl}-1,2-benzisothiazol-5-yl}-1-methyl-6-(trifluoromethyl)-]
4.0: SAGPY herbicidal rating (Sagittaria pygmaea, L.; 0.1250 kg/ha)
5.0: ORYSAT herbicidal rating (rice tolerance) ([4]; 0.0320 kg/ha) | ORYSAT herbicidal rating (rice tolerance) ([4]; 0.0620 kg/ha) | ORYSAT herbicidal rating (rice tolerance) ([4]; 0.1250 kg/ha)
6.0: CYPIR herbicidal rating (Cyperus iria; 0.0320 kg/ha) | SAGPY herbicidal rating (Sagittaria pygmaea, L.; 0.2500 kg/ha) | ORYSAT herbicidal rating (rice tolerance) ([4]; 0.2500 kg/ha)
7.0: CYPSE herbicidal rating ([2]; 0.2500 kg/ha) | MOOVA herbicidal rating ([3]; 0.0320 kg/ha) | MOOVA herbicidal rating ([3]; 0.0620 kg/ha)
9.0: ECHORC herbicidal rating ([1]; 0.0320 kg/ha) | ECHORC herbicidal rating ([1]; 0.0620 kg/ha) | ECHORC herbicidal rating ([1]; 0.1250 kg/ha) | ECHORC herbicidal rating ([1]; 0.2500 kg/ha) | CYPIR herbicidal rating (Cyperus iria; 0.0620 kg/ha) | CYPIR herbicidal rating (Cyperus iria; 0.1250 kg/ha) | CYPIR herbicidal rating (Cyperus iria; 0.2500 kg/ha) | MOOVA herbicidal rating ([3]; 0.1250 kg/ha) | MOOVA herbicidal rating ([3]; 0.2500 kg/ha)
2.0: SAGPY herbicidal rating (Sagittaria pygmaea, L.; 0.0320 kg/ha)
0.0: CYPSE herbicidal rating ([2]; 0.0320 kg/ha)
3.0: SAGPY herbicidal rating (Sagittaria pygmaea, L.; 0.0620 kg/ha)

COCc1nsc2ccc(-n3c(=O)cc(C(F)(F)F)n(C)c3=O)cc12 [Example 31, 3-[3-(Methoxymethyl)-1,2-benzisothiazol-5-yl]-1-methyl-6-(trifluoromethyl)-2,4(1H,3H)-pyrimidinedione]
8.5: herbicidal effect rating, ECHORC ([1]; 0.0625 kg/ha)
4.0: herbicidal effect rating, SAGPY (Sagittaria pygmaea, L.; 0.0313 kg/ha)
8.0: herbicidal effect rating, CYPSE ([2]; 0.1250 kg/ha) | herbicidal effect rating, ORYSAT (rice tolerance) ([4]; 0.0625 kg/ha) | herbicidal effect rating, ORYSAT (rice tolerance) ([4]; 0.2500 kg/ha)
7.5: herbicidal effect rating, ORYSAT (rice tolerance) ([4]; 0.0313 kg/ha) | herbicidal effect rating, ORYSAT (rice tolerance) ([4]; 0.1250 kg/ha)
9.0: herbicidal effect rating, ECHORC ([1]; 0.1250 kg/ha) | herbicidal effect rating, ECHORC ([1]; 0.2500 kg/ha) | herbicidal effect rating, CYPIR (Cyperus iria; 0.0313 kg/ha) | herbicidal effect rating, CYPIR (Cyperus iria; 0.0625 kg/ha) | herbicidal effect rating, CYPIR (Cyperus iria; 0.1250 kg/ha) | herbicidal effect rating, CYPIR (Cyperus iria; 0.2500 kg/ha) | herbicidal effect rating, CYPSE ([2]; 0.2500 kg/ha) | herbicidal effect rating, MOOVA ([3]; 0.0313 kg/ha) | herbicidal effect rating, MOOVA ([3]; 0.0625 kg/ha) | herbicidal effect rating, MOOVA ([3]; 0.1250 kg/ha) | herbicidal effect rating, MOOVA ([3]; 0.2500 kg/ha) | herbicidal effect rating, SAGPY (Sagittaria pygmaea, L.; 0.1250 kg/ha) | herbicidal effect rating, SAGPY (Sagittaria pygmaea, L.; 0.2500 kg/ha)
7.0: herbicidal effect rating, ECHORC ([1]; 0.0313 kg/ha) | herbicidal effect rating, CYPSE ([2]; 0.0313 kg/ha) | herbicidal effect rating, CYPSE ([2]; 0.0625 kg/ha) | herbicidal effect rating, SAGPY (Sagittaria pygmaea, L.; 0.0625 kg/ha)
